From BindingDB's records for doi:10.1021/jm970459c (Cambridge Neuroscience, 1998) come the findings set out here.

Counter-ions that a name gives are not always drawn.

For the test, the target named is Sigma receptor (Cavia porcellus). Briefly: Binding assay for the sigma receptor sites is performed by utilizing [3H]N,N-di-o-tolylguanidine ([3H]DTG) and guinea pig brain membrane suspensions.
In the case of `CCc1cccc(NC(N)=Nc2ccc(Cl)c(Cl)c2)c1` [N-(3,4-Dichloro-phenyl)-N'-(3-ethyl-phenyl)-guanidine; hydrochloride], the IC50 is 32 nM.

In turn, `CCc1cccc(N(C)C(N)=Nc2cccc(Br)c2)c1` [N'-(3-Bromo-phenyl)-N-(3-ethyl-phenyl)-N-methyl-guanidine; hydrochloride] had an IC50 of 40 nM.

Consider `CCc1cccc(N(C)C(N)=Nc2cc(Br)cc(S(C)(=O)=O)c2Br)c1` [N'-(2,5-Dibromo-3-methanesulfonyl-phenyl)-N-(3-ethyl-phenyl)-N-methyl-guanidine; hydrochloride], for which the IC50 came out at 3380 nM.

In turn, `CCc1cccc(N(C)C(N)=Nc2cc(CC)cc(CC)c2Cl)c1` [N'-(2-Chloro-3,5-diethyl-phenyl)-N-(3-ethyl-phenyl)-N-methyl-guanidine; hydrochloride] had an IC50 of 112 nM.

`CCc1cccc(N(C)C(N)=Nc2ccccc2Cl)c1` [N'-(2-Chloro-phenyl)-N-(3-ethyl-phenyl)-N-methyl-guanidine; hydrochloride] came in with an IC50 of 72 nM.

Regarding `CCc1cccc(NC(N)=Nc2cccc(Cl)c2Cl)c1` [N-(2,3-Dichloro-phenyl)-N'-(3-ethyl-phenyl)-guanidine; hydrochloride], the IC50 worked out at 13 nM.

In turn, `CCc1cccc(N(C)C(N)=Nc2ccc(Cl)cc2)c1` [N'-(4-Chloro-phenyl)-N-(3-ethyl-phenyl)-N-methyl-guanidine; hydrochloride] registered an IC50 of 46 nM.

In turn, `CCc1cccc(N(C)C(N)=Nc2cc(CC)cc(C(F)(F)F)c2Cl)c1` [N'-(2-Chloro-5-ethyl-3-trifluoromethyl-phenyl)-N-(3-ethyl-phenyl)-N-methyl-guanidine; hydrochloride] displayed an IC50 of 200 nM.

As to `CCc1cccc(N(C)C(N)=Nc2cc(C(F)(F)F)cc(CC)c2Cl)c1` [N'-(2-Chloro-3-ethyl-5-trifluoromethyl-phenyl)-N-(3-ethyl-phenyl)-N-methyl-guanidine; hydrochloride], the IC50 stood at 115 nM.

In turn, `CCc1cccc(N(C)C(N)=Nc2cc(Br)cc(OC(F)(F)F)c2Br)c1` [N'-(2,5-Dibromo-3-trifluoromethoxy-phenyl)-N-(3-ethyl-phenyl)-N-methyl-guanidine; hydrochloride] registered a concentration for half-maximal inhibition (IC50) of 113 nM.

On to `CCc1cccc(NC(N)=Nc2cc(Cl)ccc2Cl)c1` [N-(2,5-Dichloro-phenyl)-N'-(3-ethyl-phenyl)-guanidine; hydrochloride], for which the IC50 was determined as 12 nM.

Compound `CCc1cccc(N(C)C(N)=Nc2cc(Br)cc(CC)c2Br)c1` [N'-(2,5-Dibromo-3-ethyl-phenyl)-N-(3-ethyl-phenyl)-N-methyl-guanidine; hydrochloride] had an IC50 of 40 nM.

In turn, `CCc1cccc(N(C)C(N)=Nc2cc(Br)cc(C(F)(F)F)c2Br)c1` [N'-(2,5-Dibromo-3-trifluoromethyl-phenyl)-N-(3-ethyl-phenyl)-N-methyl-guanidine; hydrochloride] had an IC50 of 224 nM.

As to `CCc1cccc(N(C)C(N)=Nc2cc(C)cc(CC)c2Cl)c1` [N'-(2-Chloro-3-ethyl-5-methyl-phenyl)-N-(3-ethyl-phenyl)-N-methyl-guanidine; hydrochloride], the IC50 stood at 45 nM.

For `CCc1cccc(NC(N)=Nc2cccc(Br)c2)c1` [N-(3-Bromo-phenyl)-N'-(3-ethyl-phenyl)-guanidine; hydrochloride], the IC50 stood at 10 nM.

On to `CCc1cccc(N(C)C(N)=Nc2ccccc2C(C)C)c1` [N-(3-Ethyl-phenyl)-N'-(2-isopropyl-phenyl)-N-methyl-guanidine; hydrochloride], for which the IC50 came to 362 nM.

In turn, `CCc1cccc(N(C)C(N)=Nc2ccc(Cl)c(Cl)c2)c1` [N'-(3,4-Dichloro-phenyl)-N-(3-ethyl-phenyl)-N-methyl-guanidine; hydrochloride] returned an IC50 of 39 nM.

With `CCc1cccc(NC(N)=Nc2ccccc2C(C)C)c1` [N-(3-Ethyl-phenyl)-N'-(2-isopropyl-phenyl)-guanidine; hydrochloride], the IC50 worked out at 21 nM.

In the case of `CCc1cccc(N(C)C(N)=Nc2cccc(Cl)c2Cl)c1` [N'-(2,3-Dichloro-phenyl)-N-(3-ethyl-phenyl)-N-methyl-guanidine; hydrochloride], the IC50 was 97 nM.

As to `CCc1cccc(NC(N)=Nc2cccc(Cl)c2)c1` [N-(3-Chloro-phenyl)-N'-(3-ethyl-phenyl)-guanidine; hydrochloride], the IC50 is 27 nM.

The compound `CCc1cccc(NC(N)=Nc2cc(Cl)cc(Cl)c2)c1` [N-(3,5-Dichloro-phenyl)-N'-(3-ethyl-phenyl)-guanidine; hydrochloride] yielded an IC50 of 70 nM.

`CCc1cccc(NC(N)=Nc2ccc(Cl)cc2Cl)c1` [N-(2,4-Dichloro-phenyl)-N'-(3-ethyl-phenyl)-guanidine; hydrochloride] returned an IC50 of 37 nM.

In turn, `CCc1cccc(N(C)C(N)=Nc2cc(CC)cc(SC)c2Cl)c1` [N'-(2-Chloro-5-ethyl-3-methylsulfanyl-phenyl)-N-(3-ethyl-phenyl)-N-methyl-guanidine; hydrochloride] came in with an IC50 of 178 nM.

`CCc1cccc(NC(N)=Nc2c(Cl)cccc2Cl)c1` [N-(2,6-Dichloro-phenyl)-N'-(3-ethyl-phenyl)-guanidine; hydrochloride]: the IC50 turned out to be 14 nM.

`CCc1cccc(N(C)C(N)=Nc2cc(Br)cc([S+](C)[O-])c2Br)c1` (configuration not stated) yielded an IC50 of 1950 nM.

As to `CCc1cccc(N(C)C(=N)N(C)c2cc(Br)ccc2Br)c1` [N-(2,5-Dibromo-phenyl)-N'-(3-ethyl-phenyl)-N,N'-dimethyl-guanidine; hydrochloride], the IC50 came out at 381 nM.

In the case of `CCc1cccc(N(C)C(N)=Nc2cc(SC)cc(CC)c2Br)c1`, the IC50 came to 299 nM.

In turn, `CCc1cccc(NC(N)=Nc2ccccc2CC)c1` [N-(2-Ethyl-phenyl)-N'-(3-ethyl-phenyl)-guanidine; hydrochloride] came in with an IC50 of 19 nM.

Compound `CCc1cccc(N(C)C(N)=Nc2cc(CC)cc(CC)c2Br)c1` [N'-(2-Bromo-3,5-diethyl-phenyl)-N-(3-ethyl-phenyl)-N-methyl-guanidine; hydrochloride] showed an IC50 of 203 nM.

`CCc1cccc(N(C)C(N)=Nc2cccc(Cl)c2)c1` [N'-(3-Chloro-phenyl)-N-(3-ethyl-phenyl)-N-methyl-guanidine; hydrochloride] registered an IC50 of 44 nM.

For the compound `CCc1cccc(N(C)C(N)=Nc2ccccc2Br)c1` [N'-(2-Bromo-phenyl)-N-(3-ethyl-phenyl)-N-methyl-guanidine; hydrochloride], the IC50 was determined as 125 nM.

Compound `CCc1cccc(N(C)C(N)=Nc2cc(Cl)cc(C(F)(F)F)c2Cl)c1` [N'-(2,5-Dichloro-3-trifluoromethyl-phenyl)-N-(3-ethyl-phenyl)-N-methyl-guanidine; hydrochloride] returned an IC50 of 110 nM.

In turn, `CCc1cc(CC)cc(N=C(N)Nc2cccc(CC)c2)c1` [N-(3,5-Diethyl-phenyl)-N'-(3-ethyl-phenyl)-guanidine; hydrochloride] displayed an IC50 of 8 nM.

With `CCc1cccc(N(C)C(N)=Nc2cc(Cl)cc(SC)c2Cl)c1` [N'-(2,5-Dichloro-3-methylsulfanyl-phenyl)-N-(3-ethyl-phenyl)-N-methyl-guanidine; hydrochloride], the IC50 came to 130 nM.

The compound `CCc1cccc(N(C)C(N)=Nc2cc(CC)cc(OC(F)(F)F)c2Br)c1` [N'-(2-Bromo-5-ethyl-3-trifluoromethoxy-phenyl)-N-(3-ethyl-phenyl)-N-methyl-guanidine; hydrochloride] gave an IC50 of 261 nM.

`CCc1cccc(N(C)C(N)=Nc2cc(CC)cc(CC)c2F)c1` [N'-(3,5-Diethyl-2-fluoro-phenyl)-N-(3-ethyl-phenyl)-N-methyl-guanidine; hydrochloride] returned an IC50 of 113 nM.

In turn, `CCc1cccc(N(C)C(N)=Nc2cccc(SC)c2)c1` [N-(3-Ethyl-phenyl)-N-methyl-N'-(3-methylsulfanyl-phenyl)-guanidine; hydrochloride] had an IC50 of 164 nM.

`CCc1cccc(N(C)C(N)=Nc2cc(CC)cc(SC)c2Br)c1` [N'-(2-Bromo-5-ethyl-3-methylsulfanyl-phenyl)-N-(3-ethyl-phenyl)-N-methyl-guanidine; hydrochloride] gave a concentration for half-maximal inhibition (IC50) of 180 nM.

Consider `CCc1cccc(NC(N)=Nc2ccccc2C)c1` [N-(3-Ethyl-phenyl)-N'-o-tolyl-guanidine; hydrochloride], for which the IC50 stood at 11 nM.

On to `CCc1cccc(N(C)C(N)=Nc2cc(C(F)(F)F)cc(CC)c2Br)c1` [N'-(2-Bromo-3-ethyl-5-trifluoromethyl-phenyl)-N-(3-ethyl-phenyl)-N-methyl-guanidine; hydrochloride], for which the IC50 came to 205 nM.

In the case of `CCc1cccc(N(C)C(N)=Nc2cc(CC)cc(C(F)(F)F)c2Br)c1` [N'-(2-Bromo-5-ethyl-3-trifluoromethyl-phenyl)-N-(3-ethyl-phenyl)-N-methyl-guanidine; hydrochloride], the IC50 was 221 nM.

For the compound `CCc1cccc(N(C)C(N)=Nc2cc(Cl)ccc2Cl)c1` [N'-(2,5-Dichloro-phenyl)-N-(3-ethyl-phenyl)-N-methyl-guanidine; hydrochloride], the IC50 was determined as 29 nM.

By IC50 is commonly meant the concentration needed to halve the response being measured.
